pKd, pKi: −log10 of the molar value. Entries after “also recorded” stand apart in the source; their conditions may differ.
Key:
[1] = target: integrins in an immobilized erythrocyte ghost membrane; test: SAW biosensor binding of disintegrins to immobilized erythrocyte ghosts; parameters: species or system human; conditions: for pKd / kon / koff: SAW (sam-X), erythrocyte ghosts immobilized via hydrophobic interactions (CH3-SAM), running buffer PBS pH 7.4, 25 °C, 20 μL/min, 1:1 binding model, experiments in triplicate; for pKd: KD = koff/kon; for kon: slope of kobs vs c, kobs of five channels averaged; for koff: y-intercept of kobs vs c; for KD (range in words): SAW, erythrocyte ghost membrane; for KD (range in words) / phase response on erythrocyte ghosts vs. unspecific binding to GUVs: result in words; for specificity of binding to erythrocyte ghost membrane: authors' conclusion in words; for phase response on erythrocyte ghosts vs. unspecific binding to GUVs: titration with increasing concentrations of disintegrins, GUVs (bovine brain phospholipids) on a parallel channel
Procedure: To detect disintegrin/erythrocyte ghost binding at the molecular level, a surface acoustic wave (SAW) biosensor was used (Figure 1). The machines of SAW instruments use a detection technology resembling a highly sensitive “weight detector”. Binding processes are measured by real mass changes on the surface. Basically, the sensor is a chip, whereby the surface is excited to oscillate acoustically. Acoustic waves are generated in the piezoelectric material and propagate laterally. Response to changes in the surface-bound material and configuration is achieved through a proprietary method that produces a modified oscillation. […] The phase of the wave is shifted on mass changes. A change in amplitude indicates viscoelastic and conformational characteristics. Both effects can be differentiated and detected independently for interaction analysis.
A similar amount of erythrocyte ghosts and GUVs were successfully immobilized on (1) positively poly-L-lysin charged 2D CM-dextran, (2) EDC/NHS-activated, negatively charged 2D CM-dextran, and (3) hydrophobic–CH3-SAM. The positively charged disintegrins were repelled from all charged surfaces; therefore, immobilization via hydrophobic interactions was chosen for the main core of experiments (Figure 2). Disintegrins were diluted in PBS to achieve similar immobilization levels; in a pre-experiment, all ligands were diluted 1:3, and then dilutions were adjusted. Experiments were performed in triplicate, starting with obtustatin, then echistatin, then vice versa. The baseline was stable; at immobilization of GUVs on a chip, a 14° phase shift was detected vs. 13.1° for the erythrocyte ghosts. In this set of experiments, GUVs formed from the phospholipid fraction of the bovine brain were used as a negative control for erythrocyte ghosts.
Based on the 1:1 binding model, a KD value was calculated depending on the fit model applied for the interaction of disintegrins with integrins in the erythrocyte ghosts. Data were obtained from sensor signals after the administration of increasing concentrations of disintegrins using the monomolecular growth model. The observed rate constants (kobs) were determined from the rising phase of the sensor response curves for each analyte concentration and plotted against the corresponding disintegrin concentrations. A linear regression was performed on the dataset according to the equationkobs = kon × c + koff where kon represents the association rate constant, koff is the dissociation rate constant, and c is the concentration of the injected analyte (see Figure 3C,D).
Erythrocyte membranes were obtained by the method of Dodge, Mitchell & Hanahan, as described. To obtain erythrocyte ghosts, after the last wash the RBC pellet was mixed with nine volumes of ice-cold lysis buffer (5 mM sodium phosphate) and stirred for 15 min at 0 °C. Subsequently, the unsealed erythrocyte ghosts were pelleted by centrifugation at 37,000× g for 10 min at 0 °C. After the centrifugation the ghosts were washed with ice-cold lysis buffer until residual hemoglobin was not visible. The RBC ghosts were suspended in about 0.5 volume of PBS and were kept frozen at −30 °C until use.
Biosensor investigations were performed using a sam®-X system Surface Acoustic Wave biosensor supplied by SAW instruments (GmbH, Bonn, Germany), as described before. Gold-coated sensors were incubated in a solution of 11-mercaptoundecanoic acid (10 mM) in ethanol abs. forming a self-assembled monolayer by binding of the sulfur headgroups to the gold surface ([…]). The carboxyl groups were activated with 200 mM N-ethyl-N-(dimethylaminopropyl)-carbodiimide (EDC) and 50 mM N-hydroxysuccinimide (NHS) to bind disintegrins and/or vesicles. An excess of activated unreacted NHS esters was blocked by 1 M ethanolamine (pH 8.5). Running buffer was PBS containing 2.7 mM potassium chloride and 137 mM sodium chloride (pH 7.4 at 25 °C); flow rate was 40/20 μL/min. […]

α1β1 integrin = conditions: cited from earlier work
Source text: (§1) Integrin-mediated binding is important for the metastatic dissemination of different types of cancer cells. […] Obtustatin is one of the shortest disintegrins yet described, containing 41 amino acids. It has a similar pattern of cysteines to the other disintegrin echistatin but with a KTS motif rather than a classic RGD in its active site. […] Echistatin is a 49-amino-acid peptide belonging to the disintegrins family derived from Echis carinatus snake venom. […] Obtustatin, comprising only 41 amino acid residues, is one of the shortest disintegrins characterized to date. It was purified from the venom of the Subcaucasian subspecies of the Levantine viper—Macrovipera ...

[2] = tested on: platelet aggregation and cellular adhesion; conditions: background statement; ref [14] (preceding sentence); cited from earlier work
Source text: Disintegrins are the large family of anti-adhesive proteins found in viper venom, whose structural and functional complexity contrasts with their small molecular size. Echistatin is a 49-amino-acid peptide belonging to the disintegrins family derived from Echis carinatus snake venom. […] Obtustatin, comprising only 41 amino acid residues, is one of the shortest disintegrins characterized to date. It was purified from the venom of the Subcaucasian subspecies of the Levantine viper—Macrovipera ...

αVβ3 integrin = conditions: cited from earlier work
Source text: as §1

[3] = target: αVβ3 integrin (Homo sapiens) (UniProt P06756); conditions: cited from earlier work
UniProt P06756, sequence (P06756 31-1048, chain 1 of 2): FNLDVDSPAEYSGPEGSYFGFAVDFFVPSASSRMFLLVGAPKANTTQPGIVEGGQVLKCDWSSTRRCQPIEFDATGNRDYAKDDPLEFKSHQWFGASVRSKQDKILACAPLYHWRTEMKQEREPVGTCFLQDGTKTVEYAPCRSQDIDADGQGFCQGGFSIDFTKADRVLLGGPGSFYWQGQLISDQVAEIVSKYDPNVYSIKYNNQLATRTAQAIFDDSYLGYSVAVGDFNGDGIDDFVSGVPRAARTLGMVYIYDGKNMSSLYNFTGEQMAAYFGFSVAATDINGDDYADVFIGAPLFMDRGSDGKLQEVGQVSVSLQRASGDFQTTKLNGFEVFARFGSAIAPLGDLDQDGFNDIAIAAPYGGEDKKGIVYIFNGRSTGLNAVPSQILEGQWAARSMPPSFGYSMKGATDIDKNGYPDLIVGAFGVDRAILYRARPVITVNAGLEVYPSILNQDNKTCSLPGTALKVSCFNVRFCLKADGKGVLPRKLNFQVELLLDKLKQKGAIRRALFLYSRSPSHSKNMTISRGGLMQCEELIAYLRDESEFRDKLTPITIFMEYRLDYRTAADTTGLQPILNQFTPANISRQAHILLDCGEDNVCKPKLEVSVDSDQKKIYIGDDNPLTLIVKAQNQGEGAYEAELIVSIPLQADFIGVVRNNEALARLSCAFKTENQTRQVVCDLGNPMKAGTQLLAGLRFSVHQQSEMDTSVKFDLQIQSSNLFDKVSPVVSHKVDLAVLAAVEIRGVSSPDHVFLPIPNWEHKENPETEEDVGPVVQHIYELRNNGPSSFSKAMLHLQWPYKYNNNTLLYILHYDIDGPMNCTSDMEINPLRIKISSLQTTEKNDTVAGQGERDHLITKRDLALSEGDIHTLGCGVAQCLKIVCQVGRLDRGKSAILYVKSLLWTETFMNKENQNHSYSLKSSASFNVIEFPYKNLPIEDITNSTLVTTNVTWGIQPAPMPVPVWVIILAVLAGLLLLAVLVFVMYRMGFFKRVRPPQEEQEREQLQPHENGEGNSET
UniProt P06756, sequence (P05106 27-788, chain 2 of 2, further chain): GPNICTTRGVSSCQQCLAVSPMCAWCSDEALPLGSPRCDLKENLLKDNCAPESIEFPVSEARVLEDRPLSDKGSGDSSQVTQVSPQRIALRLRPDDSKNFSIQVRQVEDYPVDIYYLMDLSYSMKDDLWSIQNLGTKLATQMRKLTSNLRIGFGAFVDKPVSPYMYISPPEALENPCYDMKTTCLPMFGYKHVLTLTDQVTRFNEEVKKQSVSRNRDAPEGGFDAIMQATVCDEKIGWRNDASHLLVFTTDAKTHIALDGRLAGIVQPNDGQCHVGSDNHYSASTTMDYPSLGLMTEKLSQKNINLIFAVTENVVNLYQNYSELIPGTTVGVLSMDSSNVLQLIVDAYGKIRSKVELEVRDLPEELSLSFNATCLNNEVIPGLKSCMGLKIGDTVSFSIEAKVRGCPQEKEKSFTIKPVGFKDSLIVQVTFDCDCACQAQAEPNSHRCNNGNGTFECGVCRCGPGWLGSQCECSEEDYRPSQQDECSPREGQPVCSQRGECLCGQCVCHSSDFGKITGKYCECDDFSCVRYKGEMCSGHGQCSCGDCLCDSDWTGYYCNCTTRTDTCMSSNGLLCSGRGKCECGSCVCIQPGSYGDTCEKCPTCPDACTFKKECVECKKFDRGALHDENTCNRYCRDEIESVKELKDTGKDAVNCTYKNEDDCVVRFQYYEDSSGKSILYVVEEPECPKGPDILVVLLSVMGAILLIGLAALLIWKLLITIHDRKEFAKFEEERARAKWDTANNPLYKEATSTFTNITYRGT

[4] = stated in abstract without reference

Substance | pKd [1] | kon [1] | koff [1] | KD (range in words) [1] | specificity of binding to erythrocyte ghost membrane [1] | phase response on erythrocyte ghosts vs. unspecific binding to GUVs [1] | α1β1 integrin blockade, selectivity (α1β1 integrin; ref [17],[18],[19]) | α1β1 integrin inhibition (α1β1 integrin; [4]) | inhibition of platelet aggregation and cellular adhesion [2] | αVβ3 integrin antagonism (αVβ3 integrin; ref [20],[21],[22]) | αvβ3 integrin inhibition (αVβ3 integrin; [4]) | pKi [3]
CTTGPCCRQCKLKPAGTTCW-----KTS--LTSHYCTGKSCDCPLYPG (disulfide) [Obtustatin] | 6.63 | (5.34 ± 0.9) × 10^3 M^−1 s^−1 | (1.238 ± 0.8) × 10^−3 s^−1 | mid-nanomolar range | specific molecular recognition for both disintegrins, but the higher response for obtustatin; also recorded: specific binding of the obtustatin with the erythrocyte ghost membrane in the 1:1 binding mode | the highest difference is observable | block α1β1 integrin in a highly selective manner | potent, irreversible, and selective inhibitors | – | – | – | –
ECESGPCCRNCKFLKEGTICKR—ARGD-DMDDYCNGKTCDCPRNPHKGPAT (disulfide) [Echistatin] | 5.68 | (4.22 ± 0.002) × 10^2 M^−1 s^−1 | (8.85 ± 0.03) × 10^−4 s^−1 | low micromolar range | could be evidence of some unspecific binding | remarkably lower | – | – | highly effective inhibitor of platelet aggregation and cellular adhesion | potent irreversible αVβ3 integrin antagonist | potent, irreversible, and selective inhibitors | –
echistatin (from UniProt P17347) | – | – | – | – | – | – | – | – | – | – | – | 9.57

From publication PMC12692147, “Surface Acoustic Waves-Based Molecular Recognition of a Collagen Receptor on Human Erythrocytes” (International Journal of Molecular Sciences, 2025)
